Source: patent US8969573B2, “Compounds for the inhibition of cellular proliferation” (President and Fellows of Harvard College, priority 2010, dated 2015)
Like-named read-outs stand apart in the source and are kept apart here.

Key:
[1] = system: CRL2351 human breast cancer; experiment: SRB assay (inhibition of cell proliferation); format: cell-based; details: CRL2351 human breast cancer cells
Excerpt: (§1) A sulfur rhodamine B (SRB) assay was used to determine the extent of inhibition of cell proliferation as a measure of the anti-cancer activity of compounds of the present disclosure. The reagent SRB binds to cellular proteins and absorbs light proportionally to the cellular protein content, which is a surrogate marker for the number of cells. According to aspects of the present disclosure, the assay can be used to with any cancer cell line including breast cancer cell lines, prostate cancer cell lines, melanoma cell lines, lung cancer cell lines or any other cell lines of the cancers described herein.
(§2) The following protocol was used to determine the growth characteristics of certain cell lines CRL2351 human breast cancer and CRL2813 human melanoma from which cell lines having doubling times less than 48 hours were selected for growth inhibition experiments. […] The following materials were used in addition to the cancel cell lines: complete (5% fetal calf serum added) tissue culture media, 96-well tissue culture plates, Sulforhodamine B dye (SRB, 0.57% w/w), […] (TCA, 10%), acetic acid glacial (1%) and 10 mM Tris base. The cells were prepared and plated. Cancer cells were grown to 80% confluency in an incubator. The cells were trypsinized per standard protocol or as needed for each cell line. The trypsin was neutralized, cells dissociated and counted. Each cell line was plated at a density of 500, 1000 and 3000 cells per well (six wells each) in five separate plates. The cells were then returned to the incubator. One plate was then removed each day starting day one after plating. 100 μl of 10% TCA was then added and the cells were fixed at 4° C. until all the cells were fixed. […] The cell growth for vehicle treatment is considered to be 100%. The optical density was then measured and plotted for each starting cell number and cell line against time. The percent cell growth inhibition was calculated as 100 minus the % of control cell growth. The % of control cell growth=((mean OD sample−Mean OD day 0)/(mean OD vehicle−Mean OD day 0))*100.

CRL2813 human melanoma = experiment: SRB assay (inhibition of cell proliferation); format: cell-based
Excerpt: as §1, §2

eIF4E/eIF4G interaction = eIF4E/eIF4G interaction (Homo sapiens, UniProt P06730); experiment: Fluorescent polarization assay; format: binding; details: FITC eIF4G peptide and recombinant eIF4E, ratio to Z (4EGI-1 = 1)
Experimental: The difference between the two measurement yields net polarization which is considered full signal of the assay (100% control). […] The activity of compound at each concentration is determined by comparing the fluorescent polarization (FP) signal in the presence of compound to the control (no compound) value. The percent inhibition is =100-((FP compound/FP control)*100).

[2] = summary table, read-out: IC50 [μM} CRL2351
[3] = CRL2813 human melanoma cells, summary table, read-out: IC50 [μM} CRL2813
[4] = Homo sapiens, summary table, read-out: IC50 [μM} CRL2351
[5] = Homo sapiens, CRL2813, CRL2813 human melanoma cells, summary table, read-out: IC50 [μM} CRL2813
[6] = Tables 1, 4, 5, read-out: SRB-IC50 (μM) 2351
[7] = CRL2813 human melanoma cells, Tables 1, 4, 5, read-out: SRB-IC50 (μM) 2813

Sequence of eIF4E/eIF4G interaction (P06730 whole entry): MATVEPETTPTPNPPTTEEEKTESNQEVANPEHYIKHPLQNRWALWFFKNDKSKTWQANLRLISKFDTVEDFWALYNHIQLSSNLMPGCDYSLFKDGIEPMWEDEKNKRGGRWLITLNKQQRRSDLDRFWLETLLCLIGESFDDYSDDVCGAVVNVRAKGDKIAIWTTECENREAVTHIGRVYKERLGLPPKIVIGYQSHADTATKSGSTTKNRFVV

Fp (ratio to Z) (eIF4E/eIF4G interaction)	Molecule	IC50 [1, 6]	IC50 (CRL2813 human melanoma; [7])	also measured
	2-(2-(6,7-dichloro-4,5-dihydronaphtho[1,2-d]thiazol-2-yl)hydrazono)-3-(2-nitrophenyl)propanoic acid [PC-163S]			IC50 [1, 2]: 3 µM; IC50 (CRL2813 human melanoma; [3]): 3 µM
	O=C(O)/C(Cc1ccccc1[N+](=O)[O-])=N\Nc1nc2c(s1)CSc1cc(Cl)c(Cl)cc1-2 [PC-218S]			IC50 [1, 4]: 5.5 µM; IC50 (CRL2813 human melanoma; [5]): 3 µM
0.75	N.O=C(O)/C(Cn1cc(-c2ccccn2)nn1)=N/Nc1nc(-c2ccc(Cl)c(Cl)c2)cs1 [KY-767, ammonium (E)-2-(2-(4-(3,4-dichlorophenyl)thiazol-2-yl)hydrazono)-3-(4-(pyridin-2-yl)-1H-1,2,3-triazol-1-yl)propanoate]			IC50 [1, 4]: 9 µM; IC50 (CRL2813 human melanoma; [5]): 3.5 µM
0.99	[N-]=[N+]=Nc1ccc(-c2csc(NN=C(Cc3ccccc3[N+](=O)[O-])C(=O)O)n2)cc1 [KH-8]			
1.50	O=C(O)/C(Cc1ccccc1[N+](=O)[O-])=N\Nc1nc(-c2ccc(OCCCCCBr)cc2)cs1 [KH-148I]			IC50 (CRL2813 human melanoma; [5]): 0.9 µM
	O=C(O)/C(Cc1ccccc1[N+](=O)[O-])=N/Nc1nc2c(s1)COc1c-2ccc(Cl)c1Cl [PC-202F, 2-(2-(6,7-dichloro-4H-chromeno[4,3-d]thiazol-2-yl)hydrazono)-3-(2-nitrophenyl)propanoic acid]			IC50 (CRL2813 human melanoma; [5]): < 1 µM
	CCN(CC)c1ccc(-c2csc(N/N=C(\Cc3ccccc3[N+](=O)[O-])C(=O)O)n2)cc1 [KY-615F]			IC50 [1, 2]: 5.7 µM; IC50 (CRL2813 human melanoma; [3]): 18.8 µM
	O=C(O)C(Cc1ccccc1[N+](=O)[O-])=NNc1nc(-c2ccc(Cl)c(Cl)c2)cs1 [Compound 4EGI-1, reference compound]			IC50 ([1]; Homo sapiens, Tables 1, 4, 5, read-out: SRB-IC50 (μM) 2351): 6.5 µM; IC50 [1, 4]: 5 ± 1.6 µM; IC50 (CRL2813 human melanoma; Homo sapiens, CRL2813, CRL2813 human melanoma cells, Tables 1, 4, 5, read-out: SRB-IC50 (μM) 2813): 1.3 µM; IC50 (CRL2813 human melanoma; [5]): 3.8 ± 1.06 µM
	O=C(O)C(Cc1ccccc1[N+](=O)[O-])=NNc1nc(-c2ccccc2OCCBr)cs1 (single isomer, unassigned) [KH149-s]	6 µM	11.5 µM	
	O=C(O)C(Cc1ccccc1[N+](=O)[O-])=NNc1nc(-c2cccc(OCCBr)c2)cs1 (single isomer, unassigned) [KH153-f]	13.2 µM	8 µM	
	2-(2-(7,8-dichloro-4,5-dihydronaphtho[1,2-d]thiazol-2-yl)hydrazono)-3-(2-nitrophenyl)propanoic acid [PC-159S]			IC50 [1, 2]: 12.5 µM; IC50 (CRL2813 human melanoma; [3]): 4 µM
1	COc1ccc(-c2sc(N/N=C(/Cc3ccccc3[N+](=O)[O-])C(=O)O)nc2-c2ccc(C3CCCCC3)cc2)cc1 [KY-612SF]			IC50 (CRL2813 human melanoma; [3]): 0.1 µM
	O=C(O)C(Cc1ccccc1[N+](=O)[O-])=NNc1nc(-c2ccccc2OCCCCCBr)cs1 (single isomer, unassigned) [KH152-s]	7.8 µM	4.5 µM	
	O=C(O)C(Cc1ccccc1[N+](=O)[O-])=NNc1nc(-c2cccc(OCCCCCBr)c2)cs1 (mixture of isomers) [KH156]	9.1 µM	6 µM	
0.61	O=C(O)C(Cc1ccccc1[N+](=O)[O-])=NNc1nc(-c2ccc(Br)cc2)cs1 [KH-53S]			
	O=C(O)/C(Cc1ccccc1[N+](=O)[O-])=N/Nc1nc2c(s1)CSc1c-2ccc(Cl)c1Cl [PC-218F]			IC50 [1, 4]: < 1 µM; IC50 (CRL2813 human melanoma; [5]): 8 µM
	O=C(O)C(Cc1ccccc1[N+](=O)[O-])=NNc1nc(-c2cccc(OCCCBr)c2)cs1 (single isomer, unassigned) [KH154-f]	3.5 µM	0.7 µM	
	O=C(O)C(Cc1ccccc1[N+](=O)[O-])=NNc1nc(-c2ccccc2OCCCBr)cs1 (mixture of isomers) [KH150]	2.8 µM	0.9 µM	
	O=C(O)C(Cc1ccccc1[N+](=O)[O-])=NNc1nc(-c2cccc(OCCCCBr)c2)cs1 (mixture of isomers) [KH155]	8.6 µM	10.8 µM	
0.82	O=C(O)[C@@H](Cc1cccc([N+](=O)[O-])c1)Nc1nc(-c2ccc(Cl)c(Cl)c2)cs1 [KY-365]			IC50 [1, 4]: 3 µM

Fp (ratio to Z) (eIF4E/eIF4G interaction)	Molecule	IC50 [1, 6]	IC50 (CRL2813 human melanoma; [7])	also measured
	O=C(O)C(Cc1ccccc1[N+](=O)[O-])=NNc1nc(-c2ccc(OCCCBr)cc2)cs1 (single isomer, unassigned) [KH147-s]	11.2 µM	5.5 µM	
0.86	O=C(O)C(=NNc1nc(-c2ccc(Cl)c(Cl)c2)cs1)c1cccc([N+](=O)[O-])c1 (stereo in doubt) [KY-788-Z, (Z)-2-(2-(4-(3,4-dichlorophenyl)thiazol-2-yl)hydrazono)-2-(3-nitrophenyl)acetic acid]			IC50 [1, 4]: > 20 µM
0.62	O=C(O)/C(Cc1ccccc1[N+](=O)[O-])=N\Nc1nc(-c2ccc(N3CCOCC3)c(Br)c2)cs1 [KH-287II-S]			
	O=C(O)C(Cc1ccccc1[N+](=O)[O-])=NNc1nc(-c2ccc(OCCCCCBr)cc2)cs1 (mixture of isomers) [KH148]	< 0.54 µM	0.8 µM	
	O=C(O)C(Cc1ccccc1[N+](=O)[O-])=NNc1nc(-c2ccc(OCCBr)cc2)cs1 (single isomer, unassigned) [KH146-f]	< 0.54 µM	2.1 µM	
1.3	O=C(O)c1nn(-c2nc(-c3ccc(Cl)c(Cl)c3)cs2)c2ccc([N+](=O)[O-])cc12 [RYF-440]			
	O=C(O)/C(Cc1ccccc1[N+](=O)[O-])=N/Nc1nc2c(s1)COc1cc(Cl)c(Cl)cc1-2 [PC-204F, 2-(2-(7,8-dichloro-4H-chromeno[4,3-d]thiazol-2-yl)hydrazono)-3-(2-nitrophenyl)propanoic acid]			IC50 [1, 4]: 2 µM
	O=C(O)/C(Cc1ccccc1[N+](=O)[O-])=N\Nc1nc2c(s1)COc1c-2ccc(Cl)c1Cl [PC-202S, 2-(2-(6,7-dichloro-4H-chromeno[4,3-d]thiazol-2-yl)hydrazono)-3-(2-nitrophenyl)propanoic acid]			IC50 (CRL2813 human melanoma; [5]): 4.5 µM
	O=C(O)C(Cc1ccccc1[N+](=O)[O-])=NNc1nc(-c2cccc(OCCBr)c2)cs1 (single isomer, unassigned) [KH153-s]	14 µM		
	2-(2-(6,7-dichloro-4,5-dihydronaphtho[1,2-d]thiazol-2-yl)hydrazono)-3-(2-nitrophenyl)propanoic acid [PC-163F]			IC50 [1, 2]: < 1 µM; IC50 (CRL2813 human melanoma; [3]): < 1 µM
	O=C(O)C(Cc1ccccc1[N+](=O)[O-])=NNc1nc(-c2cccc(OCCCBr)c2)cs1 (single isomer, unassigned) [KH154-s]	1.5 µM		
0.96	O=C(O)C(Cc1ccccc1[N+](=O)[O-])=NNc1nc(-c2ccc(OCCCCOc3ccc(Cl)cc3)cc2)cs1 [KH-336S]			
	O=C(O)C(Cc1ccccc1[N+](=O)[O-])=NNc1nc(-c2ccc(OCCCBr)cc2)cs1 (single isomer, unassigned) [KH147-f]	0.5 µM	1.1 µM	
0.96	O=C(O)C(Cc1ccccc1[N+](=O)[O-])=NNc1nc(-c2ccc(OCCCCCOc3ccccc3)cc2)cs1 [KH-333S]			
	O=C(O)C(Cc1ccccc1[N+](=O)[O-])=NNc1nc(-c2ccccc2OCCCCCBr)cs1 (single isomer, unassigned) [KH152-f]	2.4 µM	< 1 µM	
	2-(2-(7,8-dichloro-4H-chromeno[4,3-d]thiazol-2-yl)hydrazono)-3-(2-nitrophenyl)propanoic acid [PC-204S]			IC50 [1, 2]: < 1 µM; IC50 (CRL2813 human melanoma; [3]): 3 µM
1.09	O=C(O)C(Cc1ccccc1[N+](=O)[O-])=NNc1nc(-c2ccc(OCCCOc3ccc(Cl)cc3)cc2)cs1 [KH-332S]			
	O=C(O)C(Cc1ccccc1[N+](=O)[O-])=NNc1nc(-c2ccc(OCCBr)cc2)cs1 (single isomer, unassigned) [KH146-s]	14.5 µM	14 µM	
	COc1cc2c(cc1OC)-c1nc(N/N=C(/Cc3ccccc3[N+](=O)[O-])C(=O)O)sc1CC2 [PC-195S, (Z)-2-(2-(7,8-dimethoxy-4,5-dihydronaphtho[1,2-d]thiazol-2-yl)hydrazono)-3-(2-nitrophenyl) propanoic acid]			IC50 [1, 4]: 4 µM; IC50 (CRL2813 human melanoma; [5]): 7.5 µM
	O=C(O)C(Cc1ccccc1[N+](=O)[O-])=NNc1nc(-c2ccccc2OCCBr)cs1 (single isomer, unassigned) [KH149-f]	1 µM	1 µM	
